Measured values published in ChEMBL document CHEMBL5465560, “Selectivity Literature for EUbOPEN Chemogenomic Library” (2024).

How the values were obtained:
[1] = target: Serine/threonine-protein kinase MRCK gamma (Homo sapiens) (UniProt Q6DT37); assay: Selectivity interaction (KinomeScan (DiscoverX)) EUB0000666a CDC42BPG; settings: at 10 µM
[2] = target: Serine/threonine-protein kinase PLK2 (Homo sapiens, UniProt Q9NYY3); assay: Selectivity interaction (SelectScreen profiling (Invitrogen)) EUB0000607a PLK2; settings: at 2 µM
[3] = system: Tyrosine-protein kinase ABL1 (Homo sapiens), P00519 [T315I]; settings: at 10 µM
[4] = target: Ribosomal protein S6 kinase beta-2 (Homo sapiens) (UniProt Q9UBS0); assay: Selectivity interaction (ActivX KiNativ screen (kinase selectivity in THP-1 cell lysates)) EUB0000639a RPS6KB2; assay type: subcellular; settings: lysate
[5] = target: Serine/threonine-protein kinase PAK 3 (Homo sapiens) (UniProt O75914); assay: Selectivity interaction (Kinase panel (Invitrogen)) EUB0000639a PAK3; settings: at 200 nM
[6] = target: Phosphatidylinositol 4,5-bisphosphate 3-kinase catalytic subunit beta isoform (Homo sapiens) (UniProt P42338); assay: Selectivity interaction (ProQinase) EUB0000171b PIK3CB
[7] = target: Epidermal growth factor receptor (Homo sapiens, UniProt P00533); settings: at 10 µM
[8] = target: TRAF2 and NCK-interacting protein kinase (Homo sapiens) (UniProt Q9UKE5); assay: Selectivity interaction (Ambit KINOMEscan and KiNATiv profiling in Jurkat cells) EUB0000090b TNIK; assay type: cell-based; settings: at 1 µM
[9] = system: Tyrosine-protein kinase ABL1 (Homo sapiens), P00519 [Q252H]; assay: Selectivity interaction (KinomeScan (DiscoverX)) EUB0000045b ABL1; settings: at 10 µM
[10] = target: Ribosomal protein S6 kinase alpha-4 (Homo sapiens) (UniProt O75676); assay: Selectivity interaction (KinomeScan (DiscoverX)) EUB0001079a RPS6KA4; settings: at 1 µM
[11] = target: T1, Cyclin-dependent kinase 11A (Homo sapiens) (UniProt Q9UQ88); assay: Selectivity interaction (Kinase panel (KiNativ target engagement assay in Jurkat cells)) EUB0001635a CDK11A; assay type: cell-based; settings: Selectivity number of off-targets 0.0, Selectivity number of targets 233.0, Source Knowledge https://www.sciencedirect.com/science/article/pii/S2451945619300674?via%3Dihub, at 1 µM
T1 sequence (whole entry): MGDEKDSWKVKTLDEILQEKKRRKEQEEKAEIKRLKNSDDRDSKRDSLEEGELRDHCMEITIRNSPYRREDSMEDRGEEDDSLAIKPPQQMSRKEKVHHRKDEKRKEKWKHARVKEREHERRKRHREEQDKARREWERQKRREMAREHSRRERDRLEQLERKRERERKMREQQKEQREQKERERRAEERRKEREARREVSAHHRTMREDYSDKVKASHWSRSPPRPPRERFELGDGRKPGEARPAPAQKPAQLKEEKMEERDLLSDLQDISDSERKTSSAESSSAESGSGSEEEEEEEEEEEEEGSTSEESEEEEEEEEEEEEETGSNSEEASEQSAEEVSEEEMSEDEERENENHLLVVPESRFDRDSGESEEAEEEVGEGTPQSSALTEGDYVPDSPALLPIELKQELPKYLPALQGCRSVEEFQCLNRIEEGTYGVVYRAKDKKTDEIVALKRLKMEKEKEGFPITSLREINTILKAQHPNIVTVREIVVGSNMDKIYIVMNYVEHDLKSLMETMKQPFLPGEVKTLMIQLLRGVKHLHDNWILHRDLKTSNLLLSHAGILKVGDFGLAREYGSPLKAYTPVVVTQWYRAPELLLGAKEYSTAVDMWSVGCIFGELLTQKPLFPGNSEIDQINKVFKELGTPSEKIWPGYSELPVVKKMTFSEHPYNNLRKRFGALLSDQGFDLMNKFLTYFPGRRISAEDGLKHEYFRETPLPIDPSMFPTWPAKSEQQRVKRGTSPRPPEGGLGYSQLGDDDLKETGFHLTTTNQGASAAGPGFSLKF

[12] = target: T2, Dual serine/threonine and tyrosine protein kinase (Homo sapiens) (UniProt Q6XUX3); assay: Selectivity interaction (KinomeScan (DiscoverX)) EUB0000092b DSTYK; settings: at 10 µM
T2 sequence (whole entry): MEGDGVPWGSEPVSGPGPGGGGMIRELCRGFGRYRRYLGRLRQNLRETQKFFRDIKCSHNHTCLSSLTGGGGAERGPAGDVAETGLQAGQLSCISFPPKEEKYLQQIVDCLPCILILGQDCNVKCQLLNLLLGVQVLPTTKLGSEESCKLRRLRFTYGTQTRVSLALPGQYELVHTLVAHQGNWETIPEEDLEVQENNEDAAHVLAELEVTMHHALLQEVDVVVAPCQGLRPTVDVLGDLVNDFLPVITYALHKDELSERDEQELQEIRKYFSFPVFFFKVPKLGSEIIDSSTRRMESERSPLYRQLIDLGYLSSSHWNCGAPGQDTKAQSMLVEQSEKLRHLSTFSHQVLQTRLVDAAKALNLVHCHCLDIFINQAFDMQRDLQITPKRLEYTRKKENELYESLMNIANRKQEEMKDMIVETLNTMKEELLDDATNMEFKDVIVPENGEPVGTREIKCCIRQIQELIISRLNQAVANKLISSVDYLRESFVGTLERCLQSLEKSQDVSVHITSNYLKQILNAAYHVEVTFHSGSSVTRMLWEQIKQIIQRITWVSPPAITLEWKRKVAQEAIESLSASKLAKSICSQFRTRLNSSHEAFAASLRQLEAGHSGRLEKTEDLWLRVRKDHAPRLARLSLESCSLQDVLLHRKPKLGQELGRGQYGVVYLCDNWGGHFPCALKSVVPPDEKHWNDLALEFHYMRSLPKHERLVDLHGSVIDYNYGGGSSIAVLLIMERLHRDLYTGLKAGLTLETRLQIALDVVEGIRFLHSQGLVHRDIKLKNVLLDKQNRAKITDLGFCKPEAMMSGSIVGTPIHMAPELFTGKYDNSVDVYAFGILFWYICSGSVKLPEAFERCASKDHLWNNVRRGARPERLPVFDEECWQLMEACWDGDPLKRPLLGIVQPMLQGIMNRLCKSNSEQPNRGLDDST

[13] = target: RAC-beta serine/threonine-protein kinase (Homo sapiens) (UniProt P31751); assay: Selectivity interaction (ActivX KiNativ screen (ex vivo kinase selectivity in human PBMCs)) EUB0001619a AKT2; assay type: cell-based; settings: PBMC, at 1 µM
Sequence of RAC-beta serine/threonine-protein kinase (Homo sapiens) (P31751 whole entry): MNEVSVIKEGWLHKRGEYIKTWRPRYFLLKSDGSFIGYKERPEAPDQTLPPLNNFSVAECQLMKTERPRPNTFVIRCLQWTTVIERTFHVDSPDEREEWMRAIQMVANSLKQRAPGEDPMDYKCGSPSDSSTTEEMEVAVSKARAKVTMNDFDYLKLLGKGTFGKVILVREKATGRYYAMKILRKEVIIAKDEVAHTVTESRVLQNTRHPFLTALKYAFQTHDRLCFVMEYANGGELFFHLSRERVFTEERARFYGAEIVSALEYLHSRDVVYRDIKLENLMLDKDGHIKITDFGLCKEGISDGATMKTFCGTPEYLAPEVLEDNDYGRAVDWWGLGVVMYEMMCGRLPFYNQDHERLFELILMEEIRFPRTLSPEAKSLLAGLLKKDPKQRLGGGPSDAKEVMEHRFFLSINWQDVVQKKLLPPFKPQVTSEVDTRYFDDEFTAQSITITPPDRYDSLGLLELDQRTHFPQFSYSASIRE

Sequence of Ribosomal protein S6 kinase beta-2 (Homo sapiens) (Q9UBS0 whole entry): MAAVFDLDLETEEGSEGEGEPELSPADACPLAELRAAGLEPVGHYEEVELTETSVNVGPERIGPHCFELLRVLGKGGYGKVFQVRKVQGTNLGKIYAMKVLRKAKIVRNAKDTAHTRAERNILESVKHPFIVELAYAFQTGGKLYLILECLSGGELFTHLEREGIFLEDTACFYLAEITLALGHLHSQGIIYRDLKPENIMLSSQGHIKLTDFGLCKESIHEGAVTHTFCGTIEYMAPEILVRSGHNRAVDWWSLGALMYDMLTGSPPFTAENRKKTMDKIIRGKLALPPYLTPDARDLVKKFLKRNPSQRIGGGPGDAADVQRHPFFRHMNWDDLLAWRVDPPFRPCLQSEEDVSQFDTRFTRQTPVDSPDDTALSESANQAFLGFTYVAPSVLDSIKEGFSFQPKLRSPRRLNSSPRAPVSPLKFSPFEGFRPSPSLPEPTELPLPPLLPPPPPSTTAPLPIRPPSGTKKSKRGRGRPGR
Sequence of Phosphatidylinositol 4,5-bisphosphate 3-kinase catalytic subunit beta isoform (Homo sapiens) (P42338 whole entry, looked up, canonical isoform): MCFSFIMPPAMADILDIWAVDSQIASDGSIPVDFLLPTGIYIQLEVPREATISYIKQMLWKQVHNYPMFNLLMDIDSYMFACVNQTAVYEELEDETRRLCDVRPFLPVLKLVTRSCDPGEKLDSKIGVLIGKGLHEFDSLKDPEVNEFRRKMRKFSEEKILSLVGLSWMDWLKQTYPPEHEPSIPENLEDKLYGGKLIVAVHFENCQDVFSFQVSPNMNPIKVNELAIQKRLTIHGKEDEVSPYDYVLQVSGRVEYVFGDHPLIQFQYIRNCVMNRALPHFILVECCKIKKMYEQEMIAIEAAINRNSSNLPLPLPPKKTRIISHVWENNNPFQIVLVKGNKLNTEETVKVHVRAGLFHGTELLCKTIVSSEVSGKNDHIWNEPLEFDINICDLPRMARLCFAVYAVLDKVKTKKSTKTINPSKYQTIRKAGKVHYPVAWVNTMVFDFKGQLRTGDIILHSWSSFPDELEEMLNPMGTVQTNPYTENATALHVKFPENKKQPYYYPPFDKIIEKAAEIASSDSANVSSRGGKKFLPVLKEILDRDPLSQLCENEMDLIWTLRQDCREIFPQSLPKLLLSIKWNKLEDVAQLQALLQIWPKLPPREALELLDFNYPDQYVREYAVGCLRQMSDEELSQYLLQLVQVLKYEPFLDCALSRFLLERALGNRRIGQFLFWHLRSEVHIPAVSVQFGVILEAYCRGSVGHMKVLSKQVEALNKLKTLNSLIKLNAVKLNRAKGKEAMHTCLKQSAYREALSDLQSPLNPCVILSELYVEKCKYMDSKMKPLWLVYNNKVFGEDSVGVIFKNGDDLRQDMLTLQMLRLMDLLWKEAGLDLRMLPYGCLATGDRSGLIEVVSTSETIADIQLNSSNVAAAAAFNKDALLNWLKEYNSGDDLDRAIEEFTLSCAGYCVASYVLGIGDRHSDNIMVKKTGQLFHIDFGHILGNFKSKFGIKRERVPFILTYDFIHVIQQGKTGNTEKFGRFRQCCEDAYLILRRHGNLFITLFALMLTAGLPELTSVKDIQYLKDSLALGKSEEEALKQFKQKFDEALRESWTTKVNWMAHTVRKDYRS
Sequence of TRAF2 and NCK-interacting protein kinase (Homo sapiens) (Q9UKE5 whole entry, looked up): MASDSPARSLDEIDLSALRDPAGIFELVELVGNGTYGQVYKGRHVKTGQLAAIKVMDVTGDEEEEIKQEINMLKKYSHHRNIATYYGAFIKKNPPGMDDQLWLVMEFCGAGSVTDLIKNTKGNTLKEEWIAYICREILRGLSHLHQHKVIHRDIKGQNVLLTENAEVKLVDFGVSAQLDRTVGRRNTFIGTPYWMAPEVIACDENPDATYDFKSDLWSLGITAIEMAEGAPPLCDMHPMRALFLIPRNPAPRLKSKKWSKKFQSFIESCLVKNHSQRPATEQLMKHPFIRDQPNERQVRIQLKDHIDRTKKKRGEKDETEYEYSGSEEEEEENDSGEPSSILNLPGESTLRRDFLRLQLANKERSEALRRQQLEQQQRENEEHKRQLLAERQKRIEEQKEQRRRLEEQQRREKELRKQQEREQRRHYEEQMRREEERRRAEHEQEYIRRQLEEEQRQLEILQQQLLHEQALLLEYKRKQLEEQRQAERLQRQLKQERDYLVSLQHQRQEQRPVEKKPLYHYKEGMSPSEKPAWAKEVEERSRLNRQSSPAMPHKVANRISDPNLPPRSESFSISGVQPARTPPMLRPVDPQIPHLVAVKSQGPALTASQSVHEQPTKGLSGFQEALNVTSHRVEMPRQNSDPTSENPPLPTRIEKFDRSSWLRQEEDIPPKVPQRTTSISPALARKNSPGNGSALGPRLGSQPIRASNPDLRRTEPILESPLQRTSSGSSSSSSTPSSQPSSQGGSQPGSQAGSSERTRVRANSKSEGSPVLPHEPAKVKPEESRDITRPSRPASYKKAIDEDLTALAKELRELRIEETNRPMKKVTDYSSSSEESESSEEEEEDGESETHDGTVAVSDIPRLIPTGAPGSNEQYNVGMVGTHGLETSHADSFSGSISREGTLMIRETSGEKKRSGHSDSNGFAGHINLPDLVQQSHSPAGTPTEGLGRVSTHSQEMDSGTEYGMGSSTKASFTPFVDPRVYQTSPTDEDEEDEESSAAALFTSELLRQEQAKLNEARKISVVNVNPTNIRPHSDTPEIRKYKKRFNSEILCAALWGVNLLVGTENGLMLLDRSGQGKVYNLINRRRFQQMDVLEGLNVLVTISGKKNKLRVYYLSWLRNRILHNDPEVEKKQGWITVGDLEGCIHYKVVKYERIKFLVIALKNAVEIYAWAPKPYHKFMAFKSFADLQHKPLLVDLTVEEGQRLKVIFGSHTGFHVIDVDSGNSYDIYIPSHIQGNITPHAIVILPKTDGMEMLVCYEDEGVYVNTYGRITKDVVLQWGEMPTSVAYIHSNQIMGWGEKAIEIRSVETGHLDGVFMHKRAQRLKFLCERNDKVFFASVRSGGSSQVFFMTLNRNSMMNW
Sequence of Ribosomal protein S6 kinase alpha-4 (Homo sapiens) (O75676 whole entry, looked up): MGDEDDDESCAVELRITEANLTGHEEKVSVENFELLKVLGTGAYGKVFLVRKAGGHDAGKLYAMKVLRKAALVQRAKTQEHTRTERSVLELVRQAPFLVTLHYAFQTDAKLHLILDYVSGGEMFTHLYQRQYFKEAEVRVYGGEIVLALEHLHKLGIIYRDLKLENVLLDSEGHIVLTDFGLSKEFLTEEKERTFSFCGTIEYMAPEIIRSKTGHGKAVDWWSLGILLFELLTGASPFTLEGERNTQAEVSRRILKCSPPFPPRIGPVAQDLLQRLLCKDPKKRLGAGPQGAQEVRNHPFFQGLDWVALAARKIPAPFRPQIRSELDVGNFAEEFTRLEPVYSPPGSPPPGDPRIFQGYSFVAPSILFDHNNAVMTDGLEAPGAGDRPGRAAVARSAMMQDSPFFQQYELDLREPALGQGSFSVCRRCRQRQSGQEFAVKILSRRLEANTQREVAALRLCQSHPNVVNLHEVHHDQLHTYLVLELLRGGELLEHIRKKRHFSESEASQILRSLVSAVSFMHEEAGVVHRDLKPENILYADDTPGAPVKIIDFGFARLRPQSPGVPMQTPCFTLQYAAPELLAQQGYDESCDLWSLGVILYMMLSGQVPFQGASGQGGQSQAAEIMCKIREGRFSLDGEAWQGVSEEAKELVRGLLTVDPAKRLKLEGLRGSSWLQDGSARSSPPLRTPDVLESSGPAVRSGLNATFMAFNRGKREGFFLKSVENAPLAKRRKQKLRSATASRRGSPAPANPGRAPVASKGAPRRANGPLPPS
Sequence of Serine/threonine-protein kinase PLK2 (Q9NYY3 whole entry, looked up): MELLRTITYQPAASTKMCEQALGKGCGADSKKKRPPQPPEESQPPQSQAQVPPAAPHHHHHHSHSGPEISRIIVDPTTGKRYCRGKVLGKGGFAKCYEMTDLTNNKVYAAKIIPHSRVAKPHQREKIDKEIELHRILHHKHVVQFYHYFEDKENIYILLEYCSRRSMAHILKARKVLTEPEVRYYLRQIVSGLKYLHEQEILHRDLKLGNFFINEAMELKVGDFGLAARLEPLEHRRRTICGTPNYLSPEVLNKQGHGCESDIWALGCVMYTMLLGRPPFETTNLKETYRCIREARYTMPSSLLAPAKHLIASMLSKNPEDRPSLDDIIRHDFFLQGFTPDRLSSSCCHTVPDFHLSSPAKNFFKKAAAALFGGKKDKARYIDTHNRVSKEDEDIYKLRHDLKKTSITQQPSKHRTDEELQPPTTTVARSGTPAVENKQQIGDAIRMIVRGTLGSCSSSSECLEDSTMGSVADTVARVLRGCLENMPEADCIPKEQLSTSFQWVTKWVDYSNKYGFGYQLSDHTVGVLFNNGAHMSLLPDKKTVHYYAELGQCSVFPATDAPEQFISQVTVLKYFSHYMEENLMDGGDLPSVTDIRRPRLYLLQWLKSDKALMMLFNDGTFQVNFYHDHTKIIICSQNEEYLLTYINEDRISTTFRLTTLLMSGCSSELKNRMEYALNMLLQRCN

## O=C(NOC[C@H](O)CO)c1ccc(F)c(F)c1Nc1ccc(I)cc1F
[1]
  % of control: 85%

## CNC(=O)Nc1ccc(-c2nc(N3CC4CCC(C3)O4)c3cnn(C4CCC5(CC4)OCCO5)c3n2)cc1
[2]
  % of inhibition: 1%

## CCN(CC)CCCCNc1ncc2cc(-c3cc(OC)cc(OC)c3)c(NC(=O)NC(C)(C)C)nc2n1
[3]
  % of control: 100%

## CC[C@@H]1[C@H](F)C(=O)N[C@@H]1COc1nccc2cc(C(N)=O)c(OC)cc12 [ZIMLOVISERTIB]
[4]; at 0.01 µM
  % of inhibition: -0.4%
[4]; at 0.04 µM
  % of inhibition: 9.9%
[4]; at 0.2 µM
  % of inhibition: -6.2%
[4]; at 1 µM
  % of inhibition: -5.5%
[4]; at 5 µM
  % of inhibition: 3.9%
[5]
  % of inhibition: 0.439%

## C=CC(=O)Nc1cccc(C(=O)Nc2ccc(Nc3cc(-c4[nH]c(SC)nc4C)ccn3)cc2)c1
[6]; at 1 µM
  % of control: 138%
[6]; at 5 µM
  % of control: 166%

## COCC(=O)NC/C=C/c1ccc2ncnc(Nc3ccc(Oc4ccc(C)nc4)c(C)c3)c2c1 [CP-724714]
[7]
  % of control: 0.2%

## CN(C)C/C=C/C(=O)Nc1ccc(C(=O)N2CCCC(Nc3ncc(Cl)c(-c4c[nH]c5ccccc45)n3)C2)cc1 (stereo not drawn)
[8]
  % of control: 91%

## C=CC(=O)Nc1cc(-n2c(=O)ccc3cnc4ccc(-c5ccc(NS(C)(=O)=O)cc5)cc4c32)ccc1C
[9]
  % of control: 75%

## Nc1cnc(N2CCc3cc(S(=O)(=O)Nc4c(F)cc(Cl)cc4F)cc(N4CCCC4=O)c32)nc1 [TP-020n]
[10]
  % of control: 100%

## C=CC(=O)Nc1ccc(C(=O)Nc2[nH]nc3c2CN(C(=O)N[C@H](CN(C)C)c2ccccc2)C3(C)C)cc1
[11]
  % of engagement: -0.8%

## CCC(=O)N1CCN(c2ccc(-n3c(=O)ccc4cnc5ccc(-c6cnc7ccccc7c6)cc5c43)cc2C(F)(F)F)CC1
[12]
  % of control: 28%

## N#Cc1cccc(-c2c[nH]c3ncnc(N4CCOCC4)c23)c1
[13]
  % of inhibition: 7%
